# Test system: SK-N-SH neuroblastoma cell
# Assay: Serum deprivation assay, neuroblastoma cell survival (neutral red incorporation)
# Assay type: cell-based, Human
# Details: dose range of 1-10µM, SK-N-SH cells
# Description: Serum provides survival factors (ex: growth factors) necessary to cell viability in culture conditions. According to the serum concentration it is possible to modulate the state of the cell viability. Total suppression of these components triggers cell death via apoptosis or necrosis. Causes of cell death could be oxidative stress and free radical accumulation, mitochondrial dysfunction or imbalanced calcium homeostasis. Human SK-N-SH is a neuronal cell line usually cultured in serum containing medium. Serum withdrawal in the cell culture condition provides a cell-based assay allowing the study of neuroprotection and the screening for drugs capable of protecting cells from death or delaying cell death (Ba et al. (2003) The establishment of a reliable cytotoxic system with SK-N-SH neuroblastoma cell culture. J Neurosci. Methods 123:11-22, Green et al. (1997) 17α-oestradiol exerts neuroprotective effect on SK-N-SH cells. J Neurosci. 17(2):511-515) SK-N-SH cells (passage 35) were obtained from ECACC. […] Cell viability was assessed 48h later. […] The dye (3mg/mL) is allowed to be taken up by the cells one hour at 37°C, 5% CO2, and is subsequently extracted by mixture of acetic acid and ethanol (1/[…]) and measured at 540 nm. […]
structure (smiles),measurement,value
"CC(Oc1ccccc1)C(=O)N[C@@H]1C(=O)N2[C@@H]1SC(C)(C)[C@@H]2C(=O)O (stereo partly drawn) [phenethicillin, (2S,5R,6R)-3,3-Dimethyl-7-oxo-6-[(1-oxo-2-phenoxypropyl)amino]-4-thia-1-azabicyclo[3.2.0]heptane-2-carboxylic acid]",neuroblastoma cell death,significantly delayed neuroblastoma cell death

# — patent EP1728511A1, “New use of phenethicillin and salts thereof” (Faust Pharmaceuticals, priority 2005, dated 2006)
